What was measured:
A549 = experiment: MTT test, A549; format: cell-based; conditions: Homo sapiens, 10^−5 M, 72 hours, control = 100%, mean ± SEM, read-out: average optical density (MTT), percentage relative to control
Description: (§1) The influence of the compounds of formulae (I) and (Ia) on non-clonogenic cells was evaluated with the aid of the MTT calorimetric test.
(§2) The principle of the MTT test is based on the mitochondrial reduction, by the metabolically active live cells, of the yellow-colored product MTT (3-(4,5-dimethylthiazol-2-yl)-2,5-diphenyltetrazolium bromide) to a blue-colored product, formazan. The amount of formazan thus obtained is directly proportional to the amount of live cells present in the culture well(s). This amount of formazan is measured by spectrophotometry.
(§3) The cell lines are maintained as a monolayer culture at 37° C. in stoppered culture dishes containing MEM 25 MM HEPES (Minimum Essential Medium) base medium. This medium is suited to the growth of a range of various mammalian diploid or primary cells. This medium is then supplemented with:
(§4) an amount of 5% of FCS (Foetal Calf Serum) decomplemented at 56° C. for 1 hour,
(§5) 0.6 mg/ml of L-glutamine,
(§6) 200 μg/ml of streptomycin,
(§7) The 12 human cancer cell lines which were used were obtained from the American Type Culture Collection (ATCC, Rockville, Md., USA). These 12 cell lines are:
(§8) A549 (code ATCC: CCL-185) and A-427 (code ATCC: HTB-53) which are two non-small-cell lung cancers,
(§9) Experimentally: 100 μl of a cell suspension containing 20 000 to 50 000 (depending on the cell type used) cells/ml of culture medium are inoculated in 96-well flat-bottomed multi-well plates and are incubated at 37° C., under an atmosphere comprising 5% CO2 and 70% humidity. After incubation for 24 hours, the culture medium is replaced with 100 μl of fresh medium containing either the various test compounds at concentrations ranging from 10^−5 to 10^−10 M or the solvent used to dissolve the test products (control condition). After incubation for 72 hours under the above conditions, the culture medium is replaced with 100 μl of a yellowish solution of MTT dissolved at a rate of 1 mg/ml in RPMI 1640. The microplates are reincubated for 3 hours at 37° C. and are then centrifuged for 10 minutes at 400×g. The yellowish solution of MTT is removed and the blue formazan crystals formed in the cell are dissolved in 100 μl of DMSO. The microplates are then shaken for 5 minutes. The intensity of the resulting blue coloration, and thus of the conversion of the yellow product MTT into blue formazan by the cells that are still alive at the end of the experiment, is quantified by spectrophotometry using a Dynatech Immunoassay System machine at wavelengths of 570 nm and 630 nm corresponding, respectively, to the maximum absorption wavelengths of formazan and to the background noise. Software incorporated in the spectrophotometer calculates the average optical density values and the standard deviation (SD) and standard error of mean (SEM) values.
(§10) By way of example, the results of the average optical density, expressed as a percentage relative to the average optical density measured under the control condition (set equal to 100%), obtained at a concentration of 10^−5 M on the 12 abovementioned tumor cell lines are given in Table II.

U-87MG = experiment: MTT test, U-87MG; format: cell-based; conditions: Homo sapiens, 10^−5 M, 72 hours, control = 100%, mean ± SEM, read-out: average optical density (MTT), percentage relative to control
Description: as §1, §2, §3, §4, §5, §6, §7
(§11) U-373MG (code ATCC: HTB-17) and U-87MG (code ATCC: HTB-14) which are two glioblastomas,
as §9, §10

T-47D = experiment: MTT test, T-47D; format: cell-based; conditions: Homo sapiens, T47D, 10^−5 M, 72 hours, control = 100%, mean ± SEM, read-out: average optical density (MTT), percentage relative to control
Description: as §1, §2, §3, §4, §5, §6, §7
(§12) T-47D (code ATCC: HTB-133) and MCF7 (code ATCC: HTB-22) which are two breast cancers,
as §9, §10

LoVo = experiment: MTT test, LoVo; format: cell-based; conditions: Homo sapiens, 10^−5 M, 72 hours, control = 100%, mean ± SEM, read-out: average optical density (MTT), percentage relative to control
Description: as §1, §2, §3, §4, §5, §6, §7
(§13) HTC-15 (code ATCC: CCL-225) and LoVo (code ATCC: CCL-229) which are two colorectal cancers,
as §9, §10

SW1088 = experiment: MTT test, SW1088; format: cell-based; conditions: Homo sapiens, 10^−5 M, 72 hours, control = 100%, mean ± SEM, read-out: average optical density (MTT), percentage relative to control
Description: as §1, §2, §3, §4, §5, §6, §7
SW1088 (code ATCC: HTB-12) which is an astrocytoma,
as §9, §10

T24 = experiment: MTT test, T24; format: cell-based; conditions: Homo sapiens, T-24, 10^−5 M, 72 hours, control = 100%, mean ± SEM, read-out: average optical density (MTT), percentage relative to control
Description: as §1, §2, §3, §4, §5, §6, §7
(§14) J82 (code ATCC: HTB-1) and T24 (code ATCC: HTB-4) which are two bladder cancers,
as §9, §10

J82 = experiment: MTT test, J82; format: cell-based; conditions: Homo sapiens, 10^−5 M, 72 hours, control = 100%, mean ± SEM, read-out: average optical density (MTT), percentage relative to control
Description: as §1, §2, §3, §4, §5, §6, §7, §14, §9, §10

MCF7 = experiment: MTT test, MCF7; format: cell-based; conditions: Homo sapiens, 10^−5 M, 72 hours, control = 100%, mean ± SEM, read-out: average optical density (MTT), percentage relative to control
Description: as §1, §2, §3, §4, §5, §6, §7, §12, §9, §10

[1] = Determination of the maximum tolerated dose (MTD); conditions: mouse, in vivo, ip; B6D2F1/Jico mice; single intraperitoneal administration, 2.5 to 160 mg/kg; survival over 14 days
Description: 3.—Determination of the Maximum Tolerated Dose (MTD):
The evaluation of the maximum tolerated dose was carried out on 4- to 6-week-old B6D2F1/Jico mice. The compounds were administered intraperitoneally at increasing doses graduating from 2.5 to 160 mg/kg. The value of the MTD (expressed in mg/kg) is determined from the observation of the survival rate of the animals over a 14-day period after a single administration of the product under consideration. The weight change of the animals is also monitored during this period. When the value of the MTD is greater than 160 mg/kg, the MTD value is likened to 160 mg/kg by default.
The results of the estimation of the maximum tolerated dose (MTD) are collated in the following table: […]

A-427 = experiment: MTT test, A-427; format: cell-based; conditions: Homo sapiens, 10^−5 M, 72 hours, control = 100%, mean ± SEM, read-out: average optical density (MTT), percentage relative to control
Description: as §1, §2, §3, §4, §5, §6, §7, §8, §9, §10

HCT-15 = experiment: MTT test, HCT-15; format: cell-based; conditions: Homo sapiens, 10^−5 M, 72 hours, control = 100%, mean ± SEM, read-out: average optical density (MTT), percentage relative to control
Description: as §1, §2, §3, §4, §5, §6, §7, §13, §9, §10

U-373MG = experiment: MTT test, U-373MG; format: cell-based; conditions: Homo sapiens, U373 MG, 10^−5 M, 72 hours, control = 100%, mean ± SEM, read-out: average optical density (MTT), percentage relative to control
Description: as §1, §2, §3, §4, §5, §6, §7, §11, §9, §10

PC-3 = experiment: MTT test, PC-3; format: cell-based; conditions: Homo sapiens, 10^−5 M, 72 hours, control = 100%, mean ± SEM, read-out: average optical density (MTT), percentage relative to control
Description: as §1, §2, §3, §4, §5, §6, §7
PC-3 (code ATCC: CRL-1435) which is a prostate cancer.
as §9, §10

For `COc1ccc(-c2cc3c(OC)cc(OC)cc3n(C)/c2=N\Nc2ccccn2)cc1` [CRL8266, 5,7-Dimethoxy-3-(4-methoxyphenyl)-1-methyl-1,2-dihydro-2-quinolinone-2-(2-pyridyl)hydrazone], the viability at 10 µM (A549) was 61.6 ± 3.5%, the viability at 10 µM (U-87MG) was 64.4 ± 1.2% and the viability at 10 µM (T-47D) was 25 ± 4%. For the same compound, the viability at 10 µM (LoVo) was 71.3 ± 4.5%, the viability at 10 µM (SW1088) was 68.4 ± 1.6% and the viability at 10 µM (T24) was 84.6 ± 3%. For the same compound, the viability at 10 µM (J82) was 31.2 ± 0.7%, the viability at 10 µM (MCF7) was 46.3 ± 2.6% and the MTD at 14 day [1] was > 160 mg/kg. For the same compound, the viability at 10 µM (A-427) was 45.2 ± 2.2%, the viability at 10 µM (HCT-15) was 76.1 ± 1.5% and the viability at 10 µM (U-373MG) was 66.3 ± 1.6%. For the same compound, the viability at 10 µM (PC-3) was 67.2 ± 0.9%.
For `CCN(CC)C(=O)COc1nc2cc(OC)cc(OC)c2cc1-c1ccc(OC)cc1` [Compound 18a, N,N-Diethyl-2-([5,7-dimethoxy-3-(4-methoxyphenyl)-2-quinolinyl]oxy)acetamide], the melting point was 146 to 147 °C.
Work on `COc1ccc(-c2cc3c(OC)cc(OC)cc3n(CC#N)c2=O)cc1` [CRL8255, [5,7-Dimethoxy-3-(4-methoxyphenyl)-2-oxo-1,2-dihydro-1-quinolinyl]acetonitrile] yielded a viability at 10 µM (A549) of 79.1 ± 2.1%, a viability at 10 µM (U-87MG) of 72.5 ± 1.1% and a viability at 10 µM (T-47D) of 73.7 ± 3.3%. The viability at 10 µM (LoVo) was 56.9 ± 1.1%, the viability at 10 µM (SW1088) was 67.5 ± 1.5% and the viability at 10 µM (T24) was 79.5 ± 2.2%. The viability at 10 µM (J82) was 36.2 ± 0.5%, the viability at 10 µM (MCF7) was 71.5 ± 1.4% and the MTD at 14 day [1] was > 160 mg/kg. The viability at 10 µM (A-427) was 76.3 ± 1.5%, the viability at 10 µM (HCT-15) was 58.7 ± 3% and the viability at 10 µM (U-373MG) was 68.5 ± 2.7%. It also gave a viability at 10 µM (PC-3) of 77.7 ± 1.2%.
In the case of `COc1ccc(-c2cc3c(OC)cc(OC)cc3n(C)c2=O)cc1` [CRL8244, 5,7-Dimethoxy-3-(4-methoxyphenyl)-1-methyl-1,2-dihydro-2-quinolinone], the viability at 10 µM (A549) is reported as 98 ± 0.9%, the viability at 10 µM (U-87MG) is reported as 97 ± 1% and the viability at 10 µM (T-47D) is reported as 105 ± 3%. It also gave a viability at 10 µM (LoVo) of 78.2 ± 1.8%, a viability at 10 µM (SW1088) of 81.3 ± 1.1% and a viability at 10 µM (T24) of 88.7 ± 2.9%. For the same compound, the viability at 10 µM (J82) was 88.5 ± 2.1%, the viability at 10 µM (MCF7) was 75.9 ± 3.8% and the MTD at 14 day [1] was > 160 mg/kg. For the same compound, the viability at 10 µM (A-427) was 93.6 ± 2.3%, the viability at 10 µM (HCT-15) was 76.8 ± 3% and the viability at 10 µM (U-373MG) was 69 ± 0.9%. The viability at 10 µM (PC-3) was 83.2 ± 3.6%.
`COc1ccc(-c2cc3c(OC)ccc(OC)c3nc2O)cc1` [CRL8336, 5,8-Dimethoxy-3-(4-methoxyphenyl)-1,2-dihydro-2-quinolinone] showed a viability at 10 µM (A549) of 114 ± 1.9%, a viability at 10 µM (U-87MG) of 82.3 ± 1.8% and a viability at 10 µM (T-47D) of 96.2 ± 2.9%. The viability at 10 µM (LoVo) was 92.6 ± 3.4%, the viability at 10 µM (SW1088) was 101 ± 4.3% and the viability at 10 µM (T24) was 88.2 ± 1.4%. The viability at 10 µM (J82) was 90.9 ± 0.9%, the viability at 10 µM (MCF7) was 73.9 ± 0.7% and the MTD at 14 day [1] was > 160 mg/kg. It also gave a viability at 10 µM (A-427) of 87.9 ± 3.1%, a viability at 10 µM (HCT-15) of 93.1 ± 3.2% and a viability at 10 µM (U-373MG) of 82.3 ± 1.6%. It also gave a viability at 10 µM (PC-3) of 91.7 ± 1.5%.
Compound `COc1ccc(-c2cc3c(OC)cc(OC)cc3nc2OCCN(C)C)cc1` [Compound 23a, N,N-Dimethyl-2-[5,7-dimethoxy-3-(4-methoxyphenyl)-2-quinolyl]oxy-1-ethanamine] has a melting point of 49 to 50 °C.
`COc1ccc(-c2cc3c(OC)cc(OC)cc3nc2OCC#N)cc1` [Compound 19a, 2-([5,7-Dimethoxy-3-(4-methoxyphenyl)-2-quinolinyl]oxy)acetonitrile] showed a melting point of 149 to 150 °C.
`COc1ccc(-c2cc3c(OC)cc(OC)cc3n(C)/c2=N\Nc2ccccc2)cc1` [CRL8270, 5,7-Dimethoxy-3-(4-methoxyphenyl)-1-methyl-1,2-dihydro-2-quinolinone-2-phenylhydrazone] gave a viability at 10 µM (A549) of 52.2 ± 2.4%, a viability at 10 µM (U-87MG) of 75.6 ± 0.9% and a viability at 10 µM (T-47D) of 22.9 ± 4.3%. It also gave a viability at 10 µM (LoVo) of 80 ± 3.2%, a viability at 10 µM (SW1088) of 50.7 ± 1.8% and a viability at 10 µM (T24) of 51.1 ± 3.8%. For the same compound, the viability at 10 µM (J82) was 42.5 ± 0.8%, the viability at 10 µM (MCF7) was 51.5 ± 2.4% and the MTD at 14 day [1] was > 160 mg/kg. The viability at 10 µM (A-427) was 30.8 ± 2.1%, the viability at 10 µM (HCT-15) was 58.8 ± 1.8% and the viability at 10 µM (U-373MG) was 52.2 ± 3.2%. The viability at 10 µM (PC-3) was 49.4 ± 1.1%.
In the case of `COc1ccc2[nH]c(=O)c(-c3ccccc3)cc2c1` [Compound 44, 6-Methoxy-3-phenyl-1,2-dihydro-2-quinolinone], the melting point is reported as 243 to 244 °C.

Source: patent publication US6593342B1, “Pharmaceutical compositions comprising 2-quinolones” (Laboratoire L. Lafon, priority 1998, dated 2003)
